Results on five compounds are retold here after PubChem BioAssay AID1259407 (Chemical Carcinogenesis Research Information System (CCRIS), 2018).

The data set relates to CCRIS mutagenicity, Ames/micronucleus/aberration tests. The data set can be described thus: CCRIS mutagenicity studies.
Where [1] appears, read: Test System: AMES SALMONELLA TYPHIMURIUM, Strain/Indicator: TA98, Metabolic Activation: NONE, Method: PREINCUBATION

Active and inactive are the calls of the source. How the calls were made is not given here.

Turning to `C(=NC1CCCCC1)=NC1CCCCC1`, the mutagenic call (End Point: In vivo micronucleus, Test System: Bone marrow polychromatic erythrocytes, Species: Rat, Strain/Sex: F344/N/Male, Route: Intraperitoneal) is “inactive; negative”; the mutagenic call (End Point: In vivo micronucleus, Test System: Peripheral blood normochromatic erythrocytes, Species: Mouse, Strain/Sex: B6C3F1/ Female, Route: Dermal) is “active; positive (significant increase in the frequency only at 3 mg/kg (p=0.003))”; the mutagenic call (End Point: In vivo micronucleus, Test System: Peripheral blood normochromatic erythrocytes, Species: Mouse, Strain/Sex: B6C3F1/ Male, Route: Dermal) was “active; positive (results of trend test significant (p=0.003 but increase in frequency o”; the mutagenic call (Test System: Ames Salmonella typhimurium, Strain/Indicator: TA97, Metabolic Activation: Hamster, liver S-9, Aroclor 1254, 10 and 30%, Method: Preincubation) was “inactive; negative”; the mutagenic call (Test System: Ames Salmonella typhimurium, Strain/Indicator: TA97, Metabolic Activation: None, Method: Preincubation) was “inactive; negative”; the mutagenic call (Test System: Ames Salmonella typhimurium, Strain/Indicator: TA97, Metabolic Activation: Rat, liver S-9, Aroclor 1254, 10 and 30%, Method: Preincubation) was “inactive; negative”. The mutagenic call is “inactive; negative” (Test System: Ames Salmonella typhimurium, Strain/Indicator: TA98, Metabolic Activation: Hamster, liver S-9, Aroclor 1254, 10 and 30%, Method: Preincubation); “inactive; negative” (Test System: Ames Salmonella typhimurium, Strain/Indicator: TA98, Metabolic Activation: None, Method: Preincubation); “inactive; negative” (Test System: Ames Salmonella typhimurium, Strain/Indicator: TA98, Metabolic Activation: Rat, liver S-9, Aroclor 1254, 10 and 30%, Method: Preincubation); “inactive; negative” (Test System: Ames Salmonella typhimurium, Strain/Indicator: TA100, Metabolic Activation: Hamster, liver S-9, Aroclor 1254, 10 and 30%, Method: Preincubation); “inactive; negative” (Test System: Ames Salmonella typhimurium, Strain/Indicator: TA100, Metabolic Activation: None, Method: Preincubation); “inactive; negative” (Test System: Ames Salmonella typhimurium, Strain/Indicator: TA100, Metabolic Activation: Rat, liver S-9, Aroclor 1254, 10 and 30%, Method: Preincubation). Moreover, the mutagenic call is “inactive; negative” (Test System: Ames Salmonella typhimurium, Strain/Indicator: TA1535, Metabolic Activation: Hamster, liver, S-9, Aroclor 1254, 10 and 30%, Method: Preincubation); “inactive; negative” (Test System: Ames Salmonella typhimurium, Strain/Indicator: TA1535, Metabolic Activation: None, Method: Preincubation); “inactive; negative” (Test System: Ames Salmonella typhimurium, Strain/Indicator: TA1535, Metabolic Activation: Rat, liver, S-9, Aroclor 1254, 10 and 30%, Method: Preincubation).
With `O=C(CBr)c1ccc(-c2ccccc2)cc1`, the mutagenic call is “inactive; negative” under setting [1]; “inactive; negative” (Test System: AMES SALMONELLA TYPHIMURIUM, Strain/Indicator: TA98, Metabolic Activation: RAT, LIVER, S-9, PCB, Method: PREINCUBATION); “inactive; negative” (Test System: AMES SALMONELLA TYPHIMURIUM, Strain/Indicator: TA100, Metabolic Activation: RAT, LIVER, S-9, PCB, Method: PREINCUBATION); “inactive; negative” (Test System: E. COLI, Strain/Indicator: WP2 UVRA, Metabolic Activation: NONE, Method: PREINCUBATION).
Regarding `O=C1C=C[C@]2(O)c3c(ccc(O)c31)-c1ccc(O)c3c1[C@H]2C1OC1C3=O` (stereo not given in full), the mutagenic call reads like this: (Test System: AMES SALMONELLA TYPHIMURIUM, Strain/Indicator: TA98, Metabolic Activation: NONE, Method: STANDARD PLATE) “active; positive”; (Test System: AMES SALMONELLA TYPHIMURIUM, Strain/Indicator: TA98, Metabolic Activation: RAT, LIVER, S-9, AROCLOR 1254, Method: STANDARD PLATE) “active; positive”; (Test System: AMES SALMONELLA TYPHIMURIUM, Strain/Indicator: TA100, Metabolic Activation: NONE, Method: STANDARD PLATE) “active; positive”; (Test System: AMES SALMONELLA TYPHIMURIUM, Strain/Indicator: TA100, Metabolic Activation: RAT, LIVER, S-9, AROCLOR 1254, Method: STANDARD PLATE) “active; positive”; (Test System: AMES SALMONELLA TYPHIMURIUM, Strain/Indicator: TA1535, Metabolic Activation: NONE, Method: STANDARD PLATE) “inactive; negative”; (Test System: AMES SALMONELLA TYPHIMURIUM, Strain/Indicator: TA1535, Metabolic Activation: RAT, LIVER, S-9, AROCLOR 1254, Method: STANDARD PLATE) “inactive; negative”. In addition, the mutagenic call by setting is: (Test System: AMES SALMONELLA TYPHIMURIUM, Strain/Indicator: TA1537, Metabolic Activation: NONE, Method: STANDARD PLATE) “active; positive”; (Test System: AMES SALMONELLA TYPHIMURIUM, Strain/Indicator: TA1537, Metabolic Activation: RAT, LIVER, S-9, AROCLOR 1254, Method: STANDARD PLATE) “active; positive”.
With `Cc1ccc(N=Nc2c(O)ccc3ccccc23)c([N+](=O)[O-])c1`, the mutagenic call (Test System: AMES SALMONELLA TYPHIMURIUM, Strain/Indicator: TA98, Metabolic Activation: HAMSTER, LIVER, S-9, AROCLOR 1254 (10%), Method: PREINCUBATION) is “active; positive”; the mutagenic call under setting [1] is “inactive; negative”; the mutagenic call (Test System: AMES SALMONELLA TYPHIMURIUM, Strain/Indicator: TA98, Metabolic Activation: RAT, LIVER, S-9, AROCLOR 1254 (10%), Method: PREINCUBATION) is “inactive; negative”; the mutagenic call (Test System: AMES SALMONELLA TYPHIMURIUM, Strain/Indicator: TA100, Metabolic Activation: HAMSTER, LIVER, S-9, AROCLOR 1254 (10%), Method: PREINCUBATION) was “active; positive”; the mutagenic call (Test System: AMES SALMONELLA TYPHIMURIUM, Strain/Indicator: TA100, Metabolic Activation: NONE, Method: PREINCUBATION) is “inactive; negative”; the mutagenic call (Test System: AMES SALMONELLA TYPHIMURIUM, Strain/Indicator: TA1535, Metabolic Activation: HAMSTER, LIVER, S-9, AROCLOR 1254 (10%), Method: PREINCUBATION) was “inactive; negative”. Besides, the mutagenic call is, setting by setting: (Test System: AMES SALMONELLA TYPHIMURIUM, Strain/Indicator: TA1535, Metabolic Activation: NONE, Method: PREINCUBATION) “inactive; negative”; (Test System: AMES SALMONELLA TYPHIMURIUM, Strain/Indicator: TA1535, Metabolic Activation: RAT, LIVER, S-9, AROCLOR 1254 (10%), Method: PREINCUBATION) “inactive; negative”; (Test System: AMES SALMONELLA TYPHIMURIUM, Strain/Indicator: TA1537, Metabolic Activation: HAMSTER, LIVER, S-9, AROCLOR 1254 (10%), Method: PREINCUBATION) “inactive; negative”; (Test System: AMES SALMONELLA TYPHIMURIUM, Strain/Indicator: TA1537, Metabolic Activation: NONE, Method: PREINCUBATION) “inactive; negative”; (Test System: AMES SALMONELLA TYPHIMURIUM, Strain/Indicator: TA1537, Metabolic Activation: RAT, LIVER, S-9, AROCLOR 1254 (10%), Method: PREINCUBATION) “inactive; negative”.
As for `Cl[Si](Cl)Cl`, the mutagenic call (Test System: Mouse lymphoma, Strain/Indicator: L5178Y (tk+/tk-), Metabolic Activation: None, Method: Suspension/plate) was “inactive; negative” and the mutagenic call (Test System: Mouse lymphoma, Strain/Indicator: L5178Y (tk+/tk-), Metabolic Activation: Rat, Liver, S-9, Aroclor 1254, Method: Suspension/plate) is “inactive; negative”.
